System: Spermacoce verticillate
Assay: Example 1 trial: herbicidal combinations on Spermacoce verticillate resistant to Group 4 and Group 9 herbicides
Assay type: in vivo
Settings: for % weed control at 14 DA-B: 14 days after sequential application B, B applied 15 days after A, scale 0 (no damage) to 100 (complete destruction) vs untreated control, rates per Table 1; for control of S. verticillate weeds (in words): Example 1, sequential application used after glyphosate+triclopyr at 15 DA-A
Method: Trials were carried out for evaluating the effect of herbicidal combinations on target weeds of Spermacoce verticillate resistant to herbicides belonging to Group 4 and Group 9. The evaluation for the damage on undesired weeds caused by the present compositions was carried out using a scale from 0 to 100%, compared to the untreated control plants. Here, 0 means no damage and 100 means complete destruction of weed. In the following experiments, the herbicidal activity for the herbicidal combinations was assessed till 28 days after treatment (application A).
In this trial, time T was application time, application A was performed first and at 15 days, application B was performed out in treatments with sequential application. The tested herbicides were sourced from the formulations readily available.

SMILES | % weed control at 14 DA-B [%] | control of S. verticillate weeds (in words)
O=C(O)CNCP(=O)(O)O [Glyphosate (A), N-(phosphonomethyl)glycine] | 22 | do not efficiently control
O=C(O)COc1nc(Cl)c(Cl)cc1Cl [Triclopyr (A), Triclopyr] | 42.5 | do not efficiently control
